From publication PMC8752837, “Structural basis of BAK activation in mitochondrial apoptosis initiation” (Nature Communications, 2022)
Where two headings read alike, the source gives them in different places. Marks after values point to notes of the source that are not given here.

Columns and labels:
[1] = biological target: T1, Human BAK-∆TM-His6 (BAK) (Homo sapiens, UniProt Q16611); test: Liposome permeabilization assay (ANTS/DPX dye release from LUVs): activation of WT BAK by BH3 peptides;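 for AUC for Experiment-2 (Mean): traces normalized between buffer minimum and 3% CHAPS maximum fluorescence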;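 for AUC for Experiment-3 (Mean): traces normalized between buffer minimum and 3% CHAPS maximum fluorescence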; format: biochemical; parameters: AUC for Experiment-2 (Mean) / AUC for Experiment-3 (Mean) / AUC for Experiment-1 (Mean):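 traces normalized between buffer minimum and 3% CHAPS maximum fluorescence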; conditions: for AUC for Experiment-1 (Mean) / AUC for Experiment-2 (Mean) / AUC for Experiment-3 (Mean): AUC 0-88 mins of liposome permeabilization; for AUC for Experiment-1 (Mean): Experiment-1, mean of N replicates; for AUC for Experiment-2 (Mean): Experiment-2, mean of N replicates; for AUC for Experiment-3 (Mean): Experiment-3, mean of N replicates; for EC50: Fig. 4e, AUC vs peptide dose (Suppl. Fig. 6b), n = 2 experiments each of n = 3 technical replicates, read-out: EC50 LP; for EC50 / direct BAK activation compared to WT BID BH3: 50 nM BAK; for direct BAK activation compared to WT BID BH3: liposome permeabilization, Fig. 4c, e
T1 construct: C-terminus truncated recombinant human BAK containing C-terminal 6× histidine tag (MEAS-BAK); made in house; host or cells: E. coli T7 Express pLac I/Y
T1 sequence (Q16611 1-186 limits assumed): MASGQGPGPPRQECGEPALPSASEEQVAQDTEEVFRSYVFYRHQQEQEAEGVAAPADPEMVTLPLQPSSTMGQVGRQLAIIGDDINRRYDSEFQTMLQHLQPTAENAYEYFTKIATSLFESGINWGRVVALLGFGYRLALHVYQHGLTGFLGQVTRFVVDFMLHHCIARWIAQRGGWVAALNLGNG
Method: We performed liposome permeabilization assays as previously described[43]–[46]. […] We mixed the lipid film in ANTS/DPX solution by vortexing and sonication (~15 min) followed by extrusion through polycarbonate membrane of 2 μm pore size (Avanti Polar lipids) to generate homogenous large unilamellar vesicles (LUVs). We separated LUVs from free ANTS/DPX by S500 size exclusion chromatography and stored them at 4 °C in the dark. We prepared peptide and protein dilutions in 96-well black flat bottom plates (Costar) kept on ice. […] We quantified liposome permabilization by integrating area under curve (AUC) of normalized traces based on the Simpson’s equation, and analyzed that data in Excel and GraphPad Prism. AUC measurements reflect the kinetic and extent of liposome permeabilization and provide quantitative means for comparison between different experimental conditions (e.g., BAK mutants with gross or partial variation in activity).

[2] = biological target: T2, GST-BAK (Homo sapiens, UniProt Q16611); test: Competitive fluorescence polarization assay (displacement of BID BH3 SAHB-F); format: binding
T2 construct: made in house
T2 sequence (Q16611 1-211): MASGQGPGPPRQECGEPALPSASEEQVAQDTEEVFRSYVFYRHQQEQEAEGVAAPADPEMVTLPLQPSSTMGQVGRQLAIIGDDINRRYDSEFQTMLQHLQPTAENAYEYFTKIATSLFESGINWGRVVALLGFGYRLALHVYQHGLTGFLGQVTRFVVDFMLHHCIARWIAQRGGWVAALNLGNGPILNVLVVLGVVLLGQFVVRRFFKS
Description: We also tested the monosubstituted peptides in competitive fluorescence polarization (FP) binding assays, which measure displacement from GST-BAK of BID BH3 stabilized alpha helix of BCL-2 proteins (SAHB) C-terminally tagged with fluorescein and thus informs on peptide binding affinity.
We carried out fluorescence polarization assays, measuring the displacement of the fluorescent peptide BID BH3 SAHB-F from GST-BAK, in 384-well Greiner black polystyrene plates with flat bottom (Sigma-Aldrich). Master mix consisted of 50 mM Tris-HCl pH 7.5, 50 mM KCl, 0.1 mg/mL BSA, 2 mM DTT, 0.005% Tween-20, 10 nM BID BH3 SAHB-F, and 1 µM GST-BAK. We pin transferred peptides using Biomek FX (Beckman Coulter Life Sciences, IN) to achieve final concentration of 500−0.2 µM in 20 µL final volume. We gently centrifuged plates to remove air bubbles for 1 min at 1000 rpm, and incubated them for 60 min at RT. […] Free peptide controls in each plate consisted of only BID BH3 SAHB-F and bound peptide controls containing BID BH3 SAHB-F + GST-BAK. We derived Z’-values using the equation [1 − 3(stdev^L + stdev^H)]/(average^H − average^L), where L is the free peptide control and H is the bound peptide control. […] We processed and visualized data using the software Robust Investigation of Screening Experiments (RISE) developed in house in the Pipeline Pilot platform (Accelrys, v.8.5.0). We performed at least three independent dose-response experiments for each peptide. We estimated IC50 values in RISE and GraphPad Prism v.8.0a.

[3] = displacement of 10 nM BID BH3 SAHB-fluorescein from 1 µM GST-BAK, peptide 500−0.2 µM, 60 min RT, mean ± SD, n = 9 experiments, read-out: IC50 FP
[4] = competitive FP, mean of the experiments (replicated 4-9 times), read-out: IC50 Mean

Compound | AUC for Experiment-1 (Mean) ([1]; 1 μM peptide + 50 nM BAK) | AUC for Experiment-2 (Mean) ([1]; 1 μM peptide + 50 nM BAK) | AUC for Experiment-3 (Mean) ([1]; 1 μM peptide + 50 nM BAK) | AUC for Experiment-1 (Mean) ([1]; 50 μM peptide + 50 nM BAK) | AUC for Experiment-2 (Mean) ([1]; 50 μM peptide + 50 nM BAK) | AUC for Experiment-3 (Mean) ([1]; 50 μM peptide + 50 nM BAK) | EC50 [1] [µM] | IC50 [2, 3] [µM] | IC50 ([2]; competitive FP, Experiment-1) [µM] | IC50 ([2]; competitive FP, Experiment-2) [µM] | IC50 ([2]; competitive FP, Experiment-3) [µM] | IC50 ([2]; competitive FP, Experiment-4) [µM] | IC50 ([2]; competitive FP, Experiment-5) [µM] | IC50 ([2]; competitive FP, Experiment-6) [µM] | IC50 ([2]; competitive FP, Experiment-7) [µM] | IC50 ([2]; competitive FP, Experiment-8) [µM] | IC50 ([2]; competitive FP, Experiment-9) [µM] | IC50 [2, 4] [µM] | direct BAK activation compared to WT BID BH3 [1]
Ac-EDIIRNIARHLAQFGDSMDRSI-NH2 [F(3)] | 18.713 | 17.421 | 16.388 | 17.267 | 18.39 | 17.889 | 0.11 ± 0.0161 | 11.3 ± 3.9 |  |  |  |  |  |  |  |  |  |  | gain in direct BAK activation compared to WT BID BH3
Ac-EDIIRNIARHMAQVGDSMDRSI-NH2 [M(2)] | 8.056 | 3.548 | 5.055 | 8.1746 | 3.897 | 7.008 | 0.366 ± 0.0892 |  |  |  |  |  |  |  |  |  |  |  | 
Ac-EDIIRNIARHLAQMGDSMDRSI-NH2 [M(3)] | 20.936 | 21.86 | 19.004 | 18.852 | 17.743 | 12.625 | 0.114 ± 0.0225 |  | 5.395 | 4.243 | 5.717 | 4.044 | 4.59 | 4.39 | 3.925 | 4.319 | 4.861 | 4.6 | gain in direct BAK activation compared to WT BID BH3
Ac-EDIWRNIARHLAQVGDSMDRSI-NH2 [W(0')] | 15.025 | 10.6297 | 8.405 | 12.2448 | 5.78* | 12.8163 | 0.242 ± 0.0663 | 27.4 ± 16.4 |  |  |  |  |  |  |  |  |  |  | 
Ac-EDIIRNIARHFAQVGDSMDRSI-NH2 [F(2)] | 10.629 | 6.9165 | 10.58 | 9.2417 | 6.0451 | 8.2141 | 0.29 ± 0.0426 |  |  |  |  |  |  |  |  |  |  |  | 
Ac-EDIIRNIARHWAQVGDSMDRSI-NH2 [W(2)] | 4.9093 | 3.613 | 3.7546 | 2.3973 | 4.6314 | 0.7562* | 1.08 ± 0.453 |  |  |  |  |  |  |  |  |  |  |  | less direct BAK activation compared to WT BID BH3
Ac-EDIIRNIARHLAQVGDSFDRSI-NH2 [F(4)] | 9.5438 | 9.663 | 8.9802 | 10.729 | 10.153 | 6.338 | 0.229 ± 0.0111 | 11.9 ± 3.7 |  |  |  |  |  |  |  |  |  |  | less direct BAK activation compared to WT BID BH3
Ac-EDIIRNWARHLAQVGDSMDRSI-NH2 [W(1)] | 5.265 | 7.491 | 5.218 | 7.873 | 8.991 | 6.529 | 1.7 ± 0.446 |  |  |  |  |  |  |  |  |  |  |  | less direct BAK activation compared to WT BID BH3

Continued, in another order:

AUC for Experiment-1 (Mean) ([1]; 1 μM peptide + 50 nM BAK) | AUC for Experiment-2 (Mean) ([1]; 1 μM peptide + 50 nM BAK) | AUC for Experiment-3 (Mean) ([1]; 1 μM peptide + 50 nM BAK) | AUC for Experiment-1 (Mean) ([1]; 50 μM peptide + 50 nM BAK) | AUC for Experiment-2 (Mean) ([1]; 50 μM peptide + 50 nM BAK) | AUC for Experiment-3 (Mean) ([1]; 50 μM peptide + 50 nM BAK) | EC50 [1] [µM] | IC50 [2, 3] [µM] | IC50 ([2]; competitive FP, Experiment-1) [µM] | IC50 ([2]; competitive FP, Experiment-2) [µM] | IC50 ([2]; competitive FP, Experiment-3) [µM] | IC50 ([2]; competitive FP, Experiment-4) [µM] | IC50 ([2]; competitive FP, Experiment-5) [µM] | IC50 ([2]; competitive FP, Experiment-6) [µM] | IC50 ([2]; competitive FP, Experiment-7) [µM] | IC50 ([2]; competitive FP, Experiment-8) [µM] | IC50 ([2]; competitive FP, Experiment-9) [µM] | IC50 [2, 4] [µM] | Compound | direct BAK activation compared to WT BID BH3 [1]
16.565 | 21.49 | 16.942 | 21.822 | 26.263 | 21.192 | 0.264 ± 0.0091 | 11.5 ± 7.5 |  |  |  |  |  |  |  |  |  |  | Ac-EDIIRNIARHLAQVGDSWDRSI-NH2 [W(4)] | gain in direct BAK activation compared to WT BID BH3
4.2367 | 5.3994 | 3.7484 | 8.0372 | 6.4388 | 4.7986 | 1.21 ± 0.696 |  |  |  |  |  |  |  |  |  |  |  | Ac-EDIIRNIARHYAQVGDSMDRSI-NH2 [Y(2)] | less direct BAK activation compared to WT BID BH3
22.669 | 26.226 | 23.05 | 21.941 | 27.175 | 24.539 | 0.213 ± 0.0082 | 6.9 ± 5 |  |  |  |  |  |  |  |  |  |  | Ac-EDIIRNIARHLAQVGDSYDRSI-NH2 [Y(4)] | gain in direct BAK activation compared to WT BID BH3
15.613 | 13.293 | 17.537 | 10.056 | 8.1041 | 9.4463 | 0.11 ± 0.0577 |  | 10.88 | 9.859 | 9.959 | 6.417 | 8.231 | 7.397 | 10.36 | 8.244 | 7.774 | 8.8 | CC[C@H](C)[C@H](NC(=O)[C@H](CC(N)=O)NC(=O)[C@H](CCCNC(=N)N)NC(=O)[C@@H](NC(=O)[C@@H](NC(=O)[C@H](CC(=O)O)NC(=O)[C@H](CCC(=O)O)NC(C)=O)[C@@H](C)CC)[C@@H](C)CC)C(=O)N[C@@H](C)C(=O)N[C@@H](CCCNC(=N)N)C(=O)N[C@@H](Cc1c[nH]cn1)C(=O)N[C@@H](CC(C)C)C(=O)N[C@@H](C)C(=O)N[C@@H](CCC(N)=O)C(=O)N[C@H](C(=O)NCC(=O)N[C@@H](CC(=O)O)C(=O)N[C@@H](CO)C(=O)N[C@@H](CCSC)C(=O)N[C@@H](CC(=O)O)C(=O)N[C@@H](CCCNC(=N)N)C(=O)N[C@@H](CO)C(=O)N[C@@H](Cc1c[nH]c2ccccc12)C(N)=O)C(C)C [W(5)] | 
14.061 | 9.0873 | 8.9347 | 8.5044 | 6.7192 | 7.8089 | 0.163 ± 0.0053 |  | 7.12 | 5.471 | 7.795 | 5.632 | 5.62 | 7.05 | 5.661 | 7.109 | 8.02 | 6.6 | Ac-EDIIRNIARHLAQWGDSMDRSI-NH2 [W(3)] | less direct BAK activation compared to WT BID BH3
